Results as given in PubChem BioAssay AID720600 (Broad Institute, 2013).
Records with an inconclusive call do not appear.

Test system: SNB-19 viability, Alamar Blue fluorescence, 8-48 h
Assay: SNB-19 glioblastoma cell viability loss, dose response, HRAS target identification, Alamar Blue fluorescence, 8/24/48 h, dry powder (AID 720600)

## COc1ccc(N(C(=O)CCl)C(C(=O)NCCc2ccccc2)c2cccs2)cc1Cl (configuration not stated)
Measured here: 8 h treatment
  AC50: 77.1 nM
Measured here: 24 h treatment
  AC50: 112 nM
Measured here: 48 h treatment
  AC50: 149 nM

## C#CCCCC(=O)NCCOCCOCCOc1ccc(N(C(=O)CCl)C(C(=O)NCCc2ccccc2)c2cccs2)cc1Cl (configuration not stated)
Measured here: 24 h treatment
  AC50: 946 nM
Measured here: 48 h treatment
  AC50: 2780 nM

## CC(C)(C)OC(=O)NCCOCCOCCOc1ccc(N(C(=O)CCl)C(C(=O)NCCc2ccccc2)c2cccs2)cc1Cl (configuration not stated)
Measured here: 24 h treatment
  AC50: 296 nM
Measured here: 48 h treatment
  AC50: 353 nM
